Results reported in publication PMC5218480 (PLoS ONE, 2017).

Test system: MV-4-11 cells
Assay: Gene expression microarray analysis (Affymetrix PrimeView) and GSEA
Format: cell-based, human
Set-up: RFU PODN (11730768_x_at) / Fold change /veh PODN (11730768_x_at) / RFU LINC00158 (11744669_a_at) / Fold change /veh LINC00158 (11744669_a_at) / RFU DUSP10 (11751237_a_at) / Fold change /veh DUSP10 (11751237_a_at) / RFU ID3 (11757404_x_at) / Fold change /veh ID3 (11757404_x_at) / RFU PLEKHG5 (11737974_s_at) / Fold change /veh PLEKHG5 (11737974_s_at) / RFU LRRC4B (11730491_at) / Fold change /veh LRRC4B (11730491_at) / RFU GIMAP4 (11747438_a_at) / Fold change /veh GIMAP4 (11747438_a_at) / RFU KRT8 (11758183_x_at) / Fold change /veh KRT8 (11758183_x_at) / RFU CNN1 (11734310_a_at) / Fold change /veh CNN1 (11734310_a_at) / RFU VPS37D (11726825_at) / Fold change /veh VPS37D (11726825_at) / RFU C10orf10 (11716522_x_at) / Fold change /veh C10orf10 (11716522_x_at) / RFU KIR2DL2 /// KIR2DL4 /// KIR2DL5A /// KIR2DL5B /// KIR2DS1 /// KIR2DS2 /// KIR2DS3 /// KIR2DS4 /// KIR3DL3 /// KIR3DL3 /// KIR3DS1 (11738374_at) / Fold change /veh KIR2DL2 /// KIR2DL4 /// KIR2DL5A /// KIR2DL5B /// KIR2DS1 /// KIR2DS2 /// KIR2DS3 /// KIR2DS4 /// KIR3DL3 /// KIR3DL3 /// KIR3DS1 (11738374_at) / RFU C1QL1 (11718748_at) / Fold change /veh C1QL1 (11718748_at) / RFU TMPRSS4 (11747572_a_at) / Fold change /veh TMPRSS4 (11747572_a_at) / RFU HAMP (11756126_x_at) / Fold change /veh HAMP (11756126_x_at) / RFU RNFT2 (11725882_a_at) / Fold change /veh RNFT2 (11725882_a_at) / RFU NR4A2 (11747474_a_at) / Fold change /veh NR4A2 (11747474_a_at) / RFU ABCC12 (11746883_a_at) / Fold change /veh ABCC12 (11746883_a_at) / RFU TMEM136 (11760407_x_at) / Fold change /veh TMEM136 (11760407_x_at) / RFU CLDN22 /// WWC2 (11732394_at) / Fold change /veh CLDN22 /// WWC2 (11732394_at) / RFU HLA-DPB1 (11760878_x_at) / Fold change /veh HLA-DPB1 (11760878_x_at) / RFU SPINT1 (11716480_a_at) / Fold change /veh SPINT1 (11716480_a_at) / RFU GAP43 (11754022_s_at) / Fold change /veh GAP43 (11754022_s_at) / RFU A4GNT (11735810_at) / Fold change /veh A4GNT (11735810_at) / RFU PRB3 (11715151_x_at) / Fold change /veh PRB3 (11715151_x_at) / RFU TUBB4B (11761932_at) / Fold change /veh TUBB4B (11761932_at) / RFU CAPN14 (11732068_a_at) / Fold change /veh CAPN14 (11732068_a_at) / RFU TMCC2 (11721928_a_at) / Fold change /veh TMCC2 (11721928_a_at) / RFU IRGQ (11745062_a_at) / Fold change /veh IRGQ (11745062_a_at) / RFU FAM174B (11720279_a_at) / Fold change /veh FAM174B (11720279_a_at) / RFU TMPRSS4 (11748680_a_at) / Fold change /veh TMPRSS4 (11748680_a_at) / RFU FAM212B (11763350_a_at) / Fold change /veh FAM212B (11763350_a_at) / RFU PLEKHG5 (11743358_a_at) / Fold change /veh PLEKHG5 (11743358_a_at) / RFU ZSCAN30 (11745921_a_at) / Fold change /veh ZSCAN30 (11745921_a_at) / RFU CMKLR1 (11741424_a_at) / Fold change /veh CMKLR1 (11741424_a_at) / RFU LOC101060620 /// MAPK8IP1 (11723275_at) / Fold change /veh LOC101060620 /// MAPK8IP1 (11723275_at) / RFU SPTSSB (11747773_x_at) / Fold change /veh SPTSSB (11747773_x_at) / RFU PRSS12 (11739890_at) / Fold change /veh PRSS12 (11739890_at) / RFU BIN1 (11741810_x_at) / Fold change /veh BIN1 (11741810_x_at) / RFU WNT11 (11732464_a_at) / Fold change /veh WNT11 (11732464_a_at) / RFU C10orf10 (11716521_a_at) / Fold change /veh C10orf10 (11716521_a_at) / RFU C5orf56 (11738089_at) / Fold change /veh C5orf56 (11738089_at) / RFU CYB561 (11721691_x_at) / Fold change /veh CYB561 (11721691_x_at) / RFU ANKRD19P (11752326_a_at) / Fold change /veh ANKRD19P (11752326_a_at) / RFU OR2T12 /// OR2T33 /// OR2T8 (11738714_s_at) / Fold change /veh OR2T12 /// OR2T33 /// OR2T8 (11738714_s_at) / RFU VCAN (11748164_a_at) / Fold change /veh VCAN (11748164_a_at) / RFU JSRP1 (11732532_at) / Fold change /veh JSRP1 (11732532_at) / RFU KRTAP10-11 (11738290_x_at) / Fold change /veh KRTAP10-11 (11738290_x_at) / RFU MYO3A (11730013_a_at) / Fold change /veh MYO3A (11730013_a_at) / RFU EBF3 (11725865_a_at) / Fold change /veh EBF3 (11725865_a_at) / RFU CAMK2N1 (11719241_x_at) / Fold change /veh CAMK2N1 (11719241_x_at) / RFU C5orf56 (11738088_a_at) / Fold change /veh C5orf56 (11738088_a_at) / RFU OLFML3 (11715873_a_at) / Fold change /veh OLFML3 (11715873_a_at) / RFU LOC100653217 /// NTM (11731650_a_at) / Fold change /veh LOC100653217 /// NTM (11731650_a_at) / RFU MAPK11 (11762145_a_at) / Fold change /veh MAPK11 (11762145_a_at) / RFU FIZ1 (11724087_x_at) / Fold change /veh FIZ1 (11724087_x_at) / RFU OASL (11726364_x_at) / Fold change /veh OASL (11726364_x_at) / RFU SOX15 (11748057_x_at) / Fold change /veh SOX15 (11748057_x_at) / RFU CD79A (11719716_a_at) / Fold change /veh CD79A (11719716_a_at) / RFU HIST1H1D (11736915_at) / Fold change /veh HIST1H1D (11736915_at) / RFU CASKIN2 (11723855_a_at) / Fold change /veh CASKIN2 (11723855_a_at) / RFU LOC730098 (11760151_x_at) / Fold change /veh LOC730098 (11760151_x_at) / RFU OR4N2 (11742367_at) / Fold change /veh OR4N2 (11742367_at) / RFU PRRT2 (11749266_a_at) / Fold change /veh PRRT2 (11749266_a_at) / RFU SNX32 (11753110_a_at) / Fold change /veh SNX32 (11753110_a_at) / RFU CDHR5 (11726645_a_at) / Fold change /veh CDHR5 (11726645_a_at) / RFU RCAN1 (11760418_a_at) / Fold change /veh RCAN1 (11760418_a_at) / RFU FAM167A (11723789_a_at) / Fold change /veh FAM167A (11723789_a_at) / RFU FAM26E (11764081_at) / Fold change /veh FAM26E (11764081_at) / RFU ISYNA1 (11749810_s_at) / Fold change /veh ISYNA1 (11749810_s_at) / RFU ACY1 (11761880_at) / Fold change /veh ACY1 (11761880_at) / RFU 11764098_at / Fold change /veh 11764098_at / RFU SAMD14 (11745864_x_at) / Fold change /veh SAMD14 (11745864_x_at) / RFU NPB (11741838_a_at) / Fold change /veh NPB (11741838_a_at) / RFU TMPRSS6 (11731388_a_at) / Fold change /veh TMPRSS6 (11731388_a_at) / RFU KRTAP10-2 (11738614_at) / Fold change /veh KRTAP10-2 (11738614_at) / RFU ARHGAP8 /// PRR5-ARHGAP8 (11727945_x_at) / Fold change /veh ARHGAP8 /// PRR5-ARHGAP8 (11727945_x_at) / RFU KRTAP5-7 /// NADSYN1 (11734609_at) / Fold change /veh KRTAP5-7 /// NADSYN1 (11734609_at) / RFU RASL12 (11751679_a_at) / Fold change /veh RASL12 (11751679_a_at) / RFU CDKN2B (11736163_a_at) / Fold change /veh CDKN2B (11736163_a_at) / RFU PRF1 (11729649_at) / Fold change /veh PRF1 (11729649_at) / RFU, ZNF638 /// ZNF638-IT1 / Fold change vs veh, ZNF638 /// ZNF638-IT1 / RFU, PANK3 / Fold change vs veh, PANK3 / RFU, SH3YL1 / Fold change vs veh, SH3YL1 / RFU, ZEB2 / Fold change vs veh, ZEB2 / RFU, NRIP1 / Fold change vs veh, NRIP1 / RFU, PTTG1IP / Fold change vs veh, PTTG1IP / RFU, CAPN2 / Fold change vs veh, CAPN2 / RFU, MED14 / Fold change vs veh, MED14 / RFU, SNORA58 / Fold change vs veh, SNORA58 / RFU, C1orf63 / Fold change vs veh, C1orf63 / RFU, LRRFIP1 / Fold change vs veh, LRRFIP1 / RFU, NDUFAF7 / Fold change vs veh, NDUFAF7 / RFU, SLC12A2 / Fold change vs veh, SLC12A2 / RFU, IBTK / Fold change vs veh, IBTK / RFU, ESF1 / Fold change vs veh, ESF1 / Fold change vs veh, TMEM50B / RFU, TAOK1 / Fold change vs veh, TAOK1 / RFU, ACBD3 / Fold change vs veh, ACBD3 / RFU, TMA16 / Fold change vs veh, TMA16 / RFU, RWDD3 / Fold change vs veh, RWDD3 / RFU, BCAT1 / Fold change vs veh, BCAT1 / RFU, EDEM3 / Fold change vs veh, EDEM3 / RFU, TMEM33 / Fold change vs veh, TMEM33 / RFU, WDR75 / Fold change vs veh, WDR75 / RFU, AHCTF1 / Fold change vs veh, AHCTF1 / RFU, TFRC / Fold change vs veh, TFRC / RFU, ZDHHC17 / Fold change vs veh, ZDHHC17 / RFU, NOM1 / Fold change vs veh, NOM1 / RFU, ARL8B / Fold change vs veh, ARL8B / RFU, ZBTB11 / Fold change vs veh, ZBTB11 / RFU, TAMM41 / Fold change vs veh, TAMM41 / RFU, KIAA1704 /// LOC100996395 / Fold change vs veh, KIAA1704 /// LOC100996395 / RFU, ING1 / Fold change vs veh, ING1 / RFU, TRMT61B / Fold change vs veh, TRMT61B / RFU, FUBP3 / Fold change vs veh, FUBP3 / RFU, TP53 / Fold change vs veh, TP53 / RFU, TNKS2 / Fold change vs veh, TNKS2 / RFU, ZFP14 / Fold change vs veh, ZFP14 / RFU, ACTR2 / Fold change vs veh, ACTR2 / RFU, PPP3R1 / Fold change vs veh, PPP3R1 / RFU, PIK3R1 / Fold change vs veh, PIK3R1 / RFU, HNRNPA1 / Fold change vs veh, HNRNPA1 / RFU, RNF170 / Fold change vs veh, RNF170 / RFU, ZNF28 / Fold change vs veh, ZNF28 / RFU, RNGTT / Fold change vs veh, RNGTT / RFU, OGT / Fold change vs veh, OGT / RFU, BRD1 / Fold change vs veh, BRD1 / RFU, MARS / Fold change vs veh, MARS / RFU, ZNF655 / Fold change vs veh, ZNF655 / RFU, FAHD1 / Fold change vs veh, FAHD1 / RFU, BDP1 / Fold change vs veh, BDP1 / RFU, LRRCC1 / Fold change vs veh, LRRCC1 / RFU, ARID1A / Fold change vs veh, ARID1A / RFU, ZNF146 / Fold change vs veh, ZNF146 / RFU, ZNF330 / Fold change vs veh, ZNF330 / RFU, GPN3 / Fold change vs veh, GPN3 / RFU, C9orf123 / Fold change vs veh, C9orf123 / RFU, N4BP2L2 / Fold change vs veh, N4BP2L2 / RFU, ARFIP1 / Fold change vs veh, ARFIP1 / RFU, FAM179B / Fold change vs veh, FAM179B / RFU, BCL10 / Fold change vs veh, BCL10 / RFU, UHRF1BP1L / Fold change vs veh, UHRF1BP1L / RFU, BET1 / Fold change vs veh, BET1 / RFU, CNOT2 / Fold change vs veh, CNOT2 / RFU, ZNF268 / Fold change vs veh, ZNF268 / Fold change vs veh, ZNF507 / RFU, DGCR2 / Fold change vs veh, DGCR2 / RFU, WDSUB1 / Fold change vs veh, WDSUB1 / Fold change vs veh, HSP90B1 /// MIR3652 / RFU, ADSS / Fold change vs veh, ADSS / RFU, GK / Fold change vs veh, GK / RFU, ZNF148 / Fold change vs veh, ZNF148 / RFU, TAF9 / Fold change vs veh, TAF9 / RFU, SLC1A5 / Fold change vs veh, SLC1A5 / RFU, SLMO2 / Fold change vs veh, SLMO2 / RFU, ABCC4 / Fold change vs veh, ABCC4 / RFU, LOC101060439 /// RAP1B / Fold change vs veh, LOC101060439 /// RAP1B / RFU, RFX7 / Fold change vs veh, RFX7 / RFU, GTPBP10 / Fold change vs veh, GTPBP10 / RFU, CNEP1R1 / Fold change vs veh, CNEP1R1 / RFU, BIVM-ERCC5 /// ERCC5 / Fold change vs veh, BIVM-ERCC5 /// ERCC5 / RFU, ILF3 / Fold change vs veh, ILF3 / RFU 11762660_at / Fold change /veh 11762660_at / RFU VCAN (11757783_s_at) / Fold change /veh VCAN (11757783_s_at) / RFU DDX43 (11728927_at) / Fold change /veh DDX43 (11728927_at) / RFU KRT8 (11758188_x_at) / Fold change /veh KRT8 (11758188_x_at) / RFU NKD1 (11759106_at) / Fold change /veh NKD1 (11759106_at) / RFU SRD5A1 (11742802_a_at) / Fold change /veh SRD5A1 (11742802_a_at) / RFU TPSAB1 /// TPSB2 (11721975_s_at) / Fold change /veh TPSAB1 /// TPSB2 (11721975_s_at) / RFU GSTM3 (11746129_a_at) / Fold change /veh GSTM3 (11746129_a_at) / RFU IL23R (11737362_x_at) / Fold change /veh IL23R (11737362_x_at) / RFU TMEM51 (11727254_a_at) / Fold change /veh TMEM51 (11727254_a_at) / RFU PIWIL2 (11732686_x_at) / Fold change /veh PIWIL2 (11732686_x_at) / RFU ORM1 (11744905_x_at) / Fold change /veh ORM1 (11744905_x_at) / RFU CCDC152 (11743942_at) / Fold change /veh CCDC152 (11743942_at) / RFU ECM1 (11717891_a_at) / Fold change /veh ECM1 (11717891_a_at) / RFU IL23R (11748794_a_at) / Fold change /veh IL23R (11748794_a_at) / RFU TNFAIP8L3 (11732012_x_at) / Fold change /veh TNFAIP8L3 (11732012_x_at) / RFU MBOAT4 (11741988_at) / Fold change /veh MBOAT4 (11741988_at) / RFU 11764193_at / Fold change /veh 11764193_at / RFU TMEM53 (11763286_at) / Fold change /veh TMEM53 (11763286_at) / RFU MAGEB2 (11727129_at) / Fold change /veh MAGEB2 (11727129_at) / RFU TMEM200A (11744735_a_at) / Fold change /veh TMEM200A (11744735_a_at) / RFU CCDC152 (11751479_a_at) / Fold change /veh CCDC152 (11751479_a_at) / RFU FAM211A (11726209_a_at) / Fold change /veh FAM211A (11726209_a_at) / RFU RGS16 (11746705_a_at) / Fold change /veh RGS16 (11746705_a_at) / RFU VCAN (11755009_s_at) / Fold change /veh VCAN (11755009_s_at) / RFU RHOB (11743442_s_at) / Fold change /veh RHOB (11743442_s_at) / RFU RGS16 (11720943_a_at) / Fold change /veh RGS16 (11720943_a_at) / RFU RGS16 (11720944_at) / Fold change /veh RGS16 (11720944_at) / RFU, VPS4B / Fold change vs veh, VPS4B / RFU, CREB1 / Fold change vs veh, CREB1 / RFU, DNAJC13 / Fold change vs veh, DNAJC13 / RFU, GNAQ / Fold change vs veh, GNAQ / RFU, CDK5R1 / Fold change vs veh, CDK5R1 / RFU, ZRANB3 / Fold change vs veh, ZRANB3 / RFU, CUL4A / Fold change vs veh, CUL4A / RFU, CCNY / Fold change vs veh, CCNY / RFU, UFL1 / Fold change vs veh, UFL1 / RFU, COG3 / Fold change vs veh, COG3 / RFU, DIAPH2 / Fold change vs veh, DIAPH2 / RFU, SKA2 / Fold change vs veh, SKA2 / RFU, AFF3 / Fold change vs veh, AFF3 / RFU, LMF1 / Fold change vs veh, LMF1 / RFU, IPO11 / Fold change vs veh, IPO11 / RFU, DFFB / Fold change vs veh, DFFB / RFU, FOXP1 / Fold change vs veh, FOXP1 / RFU, CARD8 / Fold change vs veh, CARD8 / RFU, STRN3 / Fold change vs veh, STRN3 / RFU, ADK / Fold change vs veh, ADK / RFU, RASSF2 / Fold change vs veh, RASSF2 / RFU, WIPF1 / Fold change vs veh, WIPF1 / RFU, LARP1B / Fold change vs veh, LARP1B / RFU, RASA1 / Fold change vs veh, RASA1 / RFU, RB1 / Fold change vs veh, RB1 / RFU, PPFIA1 / Fold change vs veh, PPFIA1 / RFU, MAT2A / Fold change vs veh, MAT2A / RFU, CCT5 / Fold change vs veh, CCT5 / RFU, WDR92 / Fold change vs veh, WDR92 / RFU, CUX1 / Fold change vs veh, CUX1 / RFU, TTC7A / Fold change vs veh, TTC7A / RFU, TMEM135 / Fold change vs veh, TMEM135 / RFU, DEPTOR / Fold change vs veh, DEPTOR / RFU, CPM / Fold change vs veh, CPM / RFU, DNAJB6 / Fold change vs veh, DNAJB6 / RFU, CACNA2D3 / Fold change vs veh, CACNA2D3 / RFU, DTX4 / Fold change vs veh, DTX4 / RFU, TFCP2 / Fold change vs veh, TFCP2 / RFU, GMCL1 /// GMCL1P1 / Fold change vs veh, GMCL1 /// GMCL1P1 / RFU, AEBP2 / Fold change vs veh, AEBP2 / RFU, SNHG1 /// SNORD22 /// SNORD25 /// SNORD26 /// SNORD27 /// SNORD28 /// SNORD29 /// SNORD31 / Fold change vs veh, SNHG1 /// SNORD22 /// SNORD25 /// SNORD26 /// SNORD27 /// SNORD28 /// SNORD29 /// SNORD31 / Fold change (Aza/veh), C12orf56 (ProbeSet 11735607_a_at) / Fold change (ACY-1035/veh), C12orf56 (ProbeSet 11735607_a_at) / Fold change (Aza/veh), FGFR1OP (ProbeSet 11751329_s_at) / Fold change (ACY-1035/veh), FGFR1OP (ProbeSet 11751329_s_at) / Fold change (Aza/veh), VPS36 (ProbeSet 11739960_a_at) / Fold change (ACY-1035/veh), VPS36 (ProbeSet 11739960_a_at) / RFU SYPL1 (11715823_x_at) / Fold change /veh SYPL1 (11715823_x_at) / RFU IGFBP7 (11715501_s_at) / Fold change /veh IGFBP7 (11715501_s_at) / RFU REEP3 (11722064_at) / Fold change /veh REEP3 (11722064_at) / RFU IGLL1 (11728026_x_at) / Fold change /veh IGLL1 (11728026_x_at): dose or concentration left out as unconfirmed
Settings: MV-4-11 cells, 48 hours

Nc1ncn([C@@H]2O[C@H](CO)[C@@H](O)[C@H]2O)c(=O)n1 [azacitidine]
RFU TMEM136 (11760407_x_at): 16.07 RFU
